Like-named read-outs stand apart in the source and are kept apart here.
Key:
phospho-Rb Ser 807/811 = conditions: single dose IP 40 mg/kg; samples post dose vs T0
From the text: Skin samples were harvested at various intervals following dosing and compared with biopsies harvested prior to dosing (T0). Biopsied samples were fixed overnight in 10% formalin.

[1] = system: A2780 ovarian cancer cell cultures; conditions: 2 hours of exposure, 6 hour washout; no increase up to 5.0 micromolar
Protocol: After the 6 hour washout period, cell extracts were prepared and evaluated by fluorometric assay for activated caspases (RFLU).

A2780 cells [2] = conditions: two hours exposure, 24 hours after exposure
Protocol: Cells were then fixed, stained with an FITC-conjugated, anti-BrdU monoclonal antibody and propidium iodide. The cells thus prepared were analyzed using 2-color flow cytometry with doublet-discrimination.

A2780 cells [3] = conditions: 2 hours exposure to 0.1 mM
Protocol: Following washout, lysates were prepared from the cells to assess the duration of the effects of exposure.

AMPK = assay: Upstate kinase Profiler counter-screening; type: biochemical
CaMKII = type: biochemical
cSRC = molecular target: T1, cSRC (Homo sapiens, UniProt P12931); assay: Upstate kinase Profiler counter-screening; type: biochemical
T1 construct: purchased Upstate

YES = molecular target: T2, YES (Homo sapiens, UniProt P07947); assay: Upstate kinase Profiler counter-screening; type: biochemical; conditions: at 1 μM
T2 construct: purchased Upstate

tumor [4] = conditions: for Status: 4-week schedule
From the text: Each 28-day dosing cycle comprising once weekly administration for three weeks with a week off.

Blk = Blk (Mus musculus, UniProt P16277)
tumor [5] = conditions: various dosages, 2 hour or 8 hour IV infusion, 21-day dosing cycle
xenograft models = conditions: plasma trough concentrations of less than 25 nM for less than two hours
[6] = system: tumor cell lines including the standard NCI panel; conditions: inhibition of CDK2/CDK1 in tumor cells
H82 (SCLC) = assay: xenograft tumor model

Chain of Blk (P16277 2-499 limits assumed): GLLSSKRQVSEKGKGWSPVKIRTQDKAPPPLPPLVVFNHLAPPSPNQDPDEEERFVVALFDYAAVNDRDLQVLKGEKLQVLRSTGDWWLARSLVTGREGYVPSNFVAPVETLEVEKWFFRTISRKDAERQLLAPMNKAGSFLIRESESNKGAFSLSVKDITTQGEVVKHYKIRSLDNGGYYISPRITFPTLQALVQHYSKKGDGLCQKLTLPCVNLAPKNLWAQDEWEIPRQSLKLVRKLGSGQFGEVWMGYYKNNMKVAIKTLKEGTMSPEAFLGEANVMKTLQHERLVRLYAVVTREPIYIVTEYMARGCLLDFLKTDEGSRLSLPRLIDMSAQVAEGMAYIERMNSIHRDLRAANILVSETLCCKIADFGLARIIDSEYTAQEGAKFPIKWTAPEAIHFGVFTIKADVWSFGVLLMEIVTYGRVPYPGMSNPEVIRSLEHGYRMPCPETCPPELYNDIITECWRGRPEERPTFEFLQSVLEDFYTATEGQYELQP
T1 sequence (P12931 whole entry, species assumed): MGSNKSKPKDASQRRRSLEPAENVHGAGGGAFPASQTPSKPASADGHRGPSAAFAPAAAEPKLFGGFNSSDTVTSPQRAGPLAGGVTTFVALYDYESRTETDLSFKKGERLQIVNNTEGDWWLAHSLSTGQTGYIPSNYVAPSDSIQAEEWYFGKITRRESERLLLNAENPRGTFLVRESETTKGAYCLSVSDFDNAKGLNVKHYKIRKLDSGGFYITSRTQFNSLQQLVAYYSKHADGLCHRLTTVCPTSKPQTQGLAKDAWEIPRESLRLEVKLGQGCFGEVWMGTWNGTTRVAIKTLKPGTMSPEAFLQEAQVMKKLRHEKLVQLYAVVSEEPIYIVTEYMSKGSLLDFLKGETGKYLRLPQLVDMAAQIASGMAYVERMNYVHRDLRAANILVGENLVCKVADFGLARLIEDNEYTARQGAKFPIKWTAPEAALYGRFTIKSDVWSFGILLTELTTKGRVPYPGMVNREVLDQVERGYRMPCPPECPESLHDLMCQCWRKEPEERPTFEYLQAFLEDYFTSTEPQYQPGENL
T2 sequence (P07947 whole entry, species assumed): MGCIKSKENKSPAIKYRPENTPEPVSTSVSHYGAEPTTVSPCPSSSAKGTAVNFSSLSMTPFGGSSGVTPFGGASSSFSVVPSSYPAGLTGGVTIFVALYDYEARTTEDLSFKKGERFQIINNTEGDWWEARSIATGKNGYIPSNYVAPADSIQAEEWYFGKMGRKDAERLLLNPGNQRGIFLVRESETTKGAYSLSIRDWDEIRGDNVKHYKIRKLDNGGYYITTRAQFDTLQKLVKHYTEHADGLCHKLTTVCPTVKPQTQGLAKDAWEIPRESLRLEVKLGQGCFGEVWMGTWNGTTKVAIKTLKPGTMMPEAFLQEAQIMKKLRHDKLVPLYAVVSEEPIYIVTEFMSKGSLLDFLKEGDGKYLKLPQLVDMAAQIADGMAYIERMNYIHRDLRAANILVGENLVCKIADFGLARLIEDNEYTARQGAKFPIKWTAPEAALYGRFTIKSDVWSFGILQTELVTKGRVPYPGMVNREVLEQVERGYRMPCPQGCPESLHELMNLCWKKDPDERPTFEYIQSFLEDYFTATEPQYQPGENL

CCc1cnn2c(NCc3ccc[n+]([O-])c3)cc(N3CCCC[C@H]3CCO)nc12 [Formula II]
phospho-Rb in proliferating epithelial cells of basal epithelium and hair follicles (phospho-Rb Ser 807/811): rapid and sustained suppression of phospho-Rb
exposure level at which caspase activity is maximal [1]: 0.05 µM
exposure completely suppressing DNA synthesis (A2780 cells [2]): greater than 0.5 micromolar
exposure showing accumulation of subG1 (apoptotic cells) (A2780 cells [2]): greater than 0.5 micromolar
period of suppression of RB phosphorylation and caspase activation after the washout (A2780 cells [3]): exceeding 6 hours
% remaining activity (AMPK; at 1 μM): 94%
% remaining activity (AMPK; at 10 μM): 82%
% remaining activity (CaMKII; at 1 μM): 102%
% remaining activity (CaMKII; at 10 μM): 91%
% remaining activity (cSRC; at 1 μM): 117%
% remaining activity (cSRC; at 10 μM): 111%
% remaining activity (YES): 92%
Status (tumor [4]; adenoidcystic carcinoma patient, 7.11 mg/m^2, 5 cycles): disease progression
Status (tumor [4]; melanoma patient, 3.63 mg/m^2, 9 cycles): disease progression
Status (tumor [4]; prostate patient, 3.63 mg/m^2, 4 cycles): disease progression
Status (tumor [4]; pseudomyxoma patient, 2.59 mg/m^2, 9 cycles): off study with stable disease
tumor markers (FIG. 11, incl. CA125) (tumor [4]; pseudomyxoma peritonei patient, after 6 cycles of 28 day treatment at 2.59 mg/m^2): falling tumor markers
responses by RECIST criteria in the population (tumor [4]; various dosages, 2 hour IV infusion, 28-day dosing cycle): No complete or partial responses
effect on tumor volume (A549 NSCLC xenografts; 5 dosing schedules (20, 29, 52, 3x17, 87 mg/kg), total 260 mg/kg): regression in tumor volume and mass
% inhibition observed at dosage of 5 mg/kg Formula II (A549 NSCLC xenografts; first Formula II column): 73%
% inhibition observed at dosage of 5 mg/kg Formula II (A549 NSCLC xenografts; second Formula II column): 160 (regression) %
% remaining activity (Blk; at 1 μM): 69%
% remaining activity (Blk; at 10 μM): 100%
responses by RECIST criteria in the population (tumor [5]): no complete or partial responses
effect on xenograft tumors (xenograft models): tumor growth inhibition or regression
number of tumor cell lines with cell cycle arrest and apoptosis [6]: more than 100 tumor cell lines
% inhibition observed at dosage of 5 mg/kg Formula II (H82 (SCLC); first Formula II column): 56%
% inhibition observed at dosage of 5 mg/kg Formula II (H82 (SCLC); second Formula II column): 65%

Reference: US20100286038A1, “FORMULATION CONTAINING CYCLIN-DEPENDENT KINASE INHIBITING COMPOUND AND METHOD OF TREATING TUMORS USING THE SAME” (priority 2007, published 2010)
